Earlier results as cited in article PMC11328599, “Crystal structure of dihydroneopterin aldolase from Mycobacterium tuberculosis associated with 8-mercaptoguanine, and development of novel S8-functionalized analogues as inhibitors: Synthesis, enzyme inhibition, in vitro toxicity and antitubercular activity” (Journal of Enzyme Inhibition and Medicinal Chemistry, 2024).

Biological target: T1, MtFolB (Mycobacterium tuberculosis, UniProt P9WNC5)
T1 construct: made in house
Set-up: method as in PMID 33752554
Conditions: previously reported; cited from earlier work

T1 sequence (P9WNC5 whole entry): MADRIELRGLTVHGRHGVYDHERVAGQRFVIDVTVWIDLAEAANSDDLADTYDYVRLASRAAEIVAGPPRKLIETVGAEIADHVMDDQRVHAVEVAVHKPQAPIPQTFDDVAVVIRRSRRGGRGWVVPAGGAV

Which Inhibition mode does the source give for `Nc1nc2nc(S)[nH]c2c(=O)[nH]1` [Compound 8-MG, 8-mercaptoguanine] here?
The Inhibition mode was “non-competitive”.
